Source: the supplement of paper PMC10307832

These cell lines were tested with NC(=O)c1ccc(N(C(N)=O)c2c(F)cccc2F)nc1-c1ccc(F)cc1F [VX-702] + Nc1ncn([C@H]2C[C@H](O)[C@@H](CO)O2)c(=O)n1 [Decitabine] (partner 2 µM) (assay: relative viability (nuclei count vs DMSO), 5 days (fraction); higher = more cells survive). Conditions: first compound 0.02 µM.
Procedure, shortened: (§1)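 Lung cancer cell lines in 1536-well plates got either a single drug or a fixed anchor-drug dose together with five library-drug doses (not always all listed) in √10 steps, by pin tool, on the day after seeding. Nuclei were counted after 5 days, and relative viability is the treated-to-vehicle ratio of nuclei counts. Values are medians of duplicate plates.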

Row | Cell Line | relative viability
1 | ABC-1 | 0.923
2 | NCI-H1944 | 0.431
3 | NCI-H2085 | 0.568
4 | NCI-H441 | 0.238
5 | NCI-H522 | 0.684
6 | EMC-BAC-2 | 0.969
7 | NCI-H2170 | 0.444
8 | UMC-11 | 0.515
9 | NCI-H650 | 0.385
10 | LCLC-103H | 0.733
11 | NCI-H596 | 1.3
12 | HCC-827 | 0.295
13 | COR-L 105 | 0.619
14 | NCI-H2126 | 0.547
15 | A549 | 0.303
16 | NCI-H647 | 0.475
17 | LOU-NH91 | 0.837
18 | HCC-78 | 0.744
19 | HCC-44 | 1

Row | Cell Line | relative viability
20 | NCI-H1651 | 0.571
21 | NCI-H1755 | 0.699
22 | HOP-62 | 0.209
23 | PC-14 | 0.199
24 | NCI-H1650 | 0.477
25 | ChaGo-K-1 | 0.532
26 | A-427 | 0.623
27 | NCI-H1355 | 0.348
28 | NCI-H1648 | 0.443
29 | COR-L23 | 0.518
30 | SK-LU-1 | 0.625
31 | SW 1573 | 0.518
32 | NCI-H2342 | 0.788
33 | NCI-H661 | 0.567
34 | NCI-H2009 | 0.392
35 | NCI-H520 | 0.571
36 | NCI-H2023 | 0.23
37 | SK-MES-1 | 0.387

Same assay, conditions: first compound 0.2 µM

Row | Cell Line | relative viability
38 | ABC-1 | 1.09
39 | NCI-H1944 | 0.437
40 | NCI-H2085 | 0.575
41 | NCI-H441 | 0.258
42 | NCI-H522 | 0.775
43 | EMC-BAC-2 | 0.962
44 | NCI-H2170 | 0.415
45 | UMC-11 | 0.616
46 | NCI-H650 | 0.344
47 | LCLC-103H | 0.735
48 | NCI-H596 | 1.55
49 | HCC-827 | 0.31
50 | COR-L 105 | 0.722
51 | NCI-H2126 | 0.567
52 | A549 | 0.249
53 | NCI-H647 | 0.383
54 | LOU-NH91 | 0.832
55 | HCC-78 | 0.669
56 | HCC-44 | 0.969

Row | Cell Line | relative viability
57 | NCI-H1651 | 0.573
58 | NCI-H1755 | 0.732
59 | HOP-62 | 0.166
60 | PC-14 | 0.261
61 | NCI-H1650 | 0.422
62 | ChaGo-K-1 | 0.493
63 | A-427 | 0.503
64 | NCI-H1355 | 0.33
65 | NCI-H1648 | 0.457
66 | COR-L23 | 0.521
67 | SK-LU-1 | 0.61
68 | SW 1573 | 0.434
69 | NCI-H2342 | 0.821
70 | NCI-H661 | 0.583
71 | NCI-H2009 | 0.435
72 | NCI-H520 | 0.513
73 | NCI-H2023 | 0.219
74 | SK-MES-1 | 0.388

Same assay, conditions: first compound 0.6325 µM

Row | Cell Line | relative viability
75 | ABC-1 | 1.09
76 | NCI-H1944 | 0.46
77 | NCI-H2085 | 0.627
78 | NCI-H441 | 0.251
79 | NCI-H522 | 0.646
80 | EMC-BAC-2 | 0.944
81 | NCI-H2170 | 0.466
82 | UMC-11 | 0.643
83 | NCI-H650 | 0.3
84 | LCLC-103H | 0.685
85 | NCI-H596 | 1.15
86 | HCC-827 | 0.337
87 | COR-L 105 | 0.696
88 | NCI-H2126 | 0.566
89 | A549 | 0.332
90 | NCI-H647 | 0.335
91 | LOU-NH91 | 0.815
92 | HCC-78 | 0.715
93 | HCC-44 | 1.02

Row | Cell Line | relative viability
94 | NCI-H1651 | 0.649
95 | NCI-H1755 | 0.703
96 | HOP-62 | 0.206
97 | PC-14 | 0.221
98 | NCI-H1650 | 0.44
99 | ChaGo-K-1 | 0.516
100 | A-427 | 0.54
101 | NCI-H1355 | 0.366
102 | NCI-H1648 | 0.469
103 | COR-L23 | 0.435
104 | SK-LU-1 | 0.653
105 | SW 1573 | 0.412
106 | NCI-H2342 | 0.697
107 | NCI-H661 | 0.58
108 | NCI-H2009 | 0.454
109 | NCI-H520 | 0.444
110 | NCI-H2023 | 0.211
111 | SK-MES-1 | 0.308

Same assay, conditions: first compound 2 µM

Row | Cell Line | relative viability
112 | ABC-1 | 1.31
113 | NCI-H1944 | 0.431
114 | NCI-H2085 | 0.524
115 | NCI-H441 | 0.212
116 | NCI-H522 | 0.753
117 | EMC-BAC-2 | 0.885
118 | NCI-H2170 | 0.486
119 | UMC-11 | 0.791
120 | NCI-H650 | 0.324
121 | LCLC-103H | 0.746
122 | NCI-H596 | 1.16
123 | HCC-827 | 0.189
124 | COR-L 105 | 0.636
125 | NCI-H2126 | 0.595
126 | A549 | 0.177
127 | NCI-H647 | 0.306
128 | LOU-NH91 | 0.766
129 | HCC-78 | 0.665
130 | HCC-44 | 0.924

Row | Cell Line | relative viability
131 | NCI-H1651 | 0.615
132 | NCI-H1755 | 0.797
133 | HOP-62 | 0.196
134 | PC-14 | 0.218
135 | NCI-H1650 | 0.46
136 | ChaGo-K-1 | 0.525
137 | A-427 | 0.542
138 | NCI-H1355 | 0.318
139 | NCI-H1648 | 0.481
140 | COR-L23 | 0.525
141 | SK-LU-1 | 0.702
142 | SW 1573 | 0.437
143 | NCI-H2342 | 0.754
144 | NCI-H661 | 0.591
145 | NCI-H2009 | 0.399
146 | NCI-H520 | 0.418
147 | NCI-H2023 | 0.231
148 | SK-MES-1 | 0.297

The cell lines below were run with CC(C)(C)c1nc(-c2cccc(NS(=O)(=O)c3c(F)cccc3F)c2F)c(-c2ccnc(N)n2)s1 [Dabrafenib] + O=C(c1cc(Cc2n[nH]c(=O)c3ccccc23)ccc1F)N1CCN(C(=O)C2CC2)CC1 [Olaparib] (partner 8 µM) in the same assay as above. Conditions: first compound 0.003 µM.
Procedure, shortened: as §1

Row | Cell Line | relative viability
149 | CAL-12T | 0.657
150 | NCI-H1944 | 0.402
151 | NCI-H2085 | 0.759
152 | IA-LM | 0.873
153 | NCI-H2228 | 0.757
154 | NCI-H2170 | 0.653
155 | NCI-H1703 | 0.602
156 | UMC-11 | 0.443
